The record followed here is patent publication US20220388953A1, “COMPOUNDS WITH ANTIMICROBIAL ACTIVITY” (The Hong Kong Polytechnic University, priority 2018, published 2022).

As a reminder, the MIC is the least concentration at which growth counts as inhibited. The term melting point denotes the temperature of the solid-liquid transition.

≈ marks a conversion by molar mass, not a printed value. Read-outs that look alike come from different tables or passages of the source.

Data set [1] has as its system Streptococcus pneumoniae (Klein) Chester (ATCC 49619). The experiment in a line: Antimicrobial assay, broth microdilution (CLSI), MIC. It counts as cell-based. The method, then: C3 derivatives were synthesized and antimicrobial activity measured against Streptococcus pneumoniae (MIC, minimum inhibitory concentration).
Bacterial Strains was used in this study is Streptococcus pneumoniae (Klein) Chester (ATCC® 49619™)
The antimicrobial activity of the compounds was determined by broth microdilution according to the Clinical & Laboratory Standards Institute (CLSI) guidelines. The test medium was cation-adjusted Mueller-Hinton broth (MH). Serial two-fold dilutions were performed for the tested chemicals starting from 256 μg/mL to 0.5 μg/mL, and the bacterial cell inoculum was adjusted to approximately 5×10^5 CFU/mL. Results were taken after 20 h of incubation at 37° C. The MIC was defined as the lowest concentration of antibiotic with no visible growth. Experiments were performed in duplicates.
For orientation: In broth dilution the organism is exposed to a series of concentrations in liquid medium.

The test system of the next data set is β′ CH −σ^A interaction. The experiment in a line: ELISA-based binding assay using σ^A and a GST-tagged β′ subunit fragment (β′-CH). The note with it: inhibitor compounds used at 500 μM (FIG. 3). Set-up: species or system Bacillus subtilis. How it is done:
FIG. 3 depicts a graph showing assay results of hit compound activity determined by ELISA of the β′ CH −σ^A interaction. Inhibitor compounds C1-C7 were used at 500 μM.

The mark [2] stands for this setting: ATCC49619, Table 1, Streptococcus pneumoniae ATCC 49619, 20 h at 37° C., read-out: MIC.
The mark [3] stands for this setting: Streptococcus pneumoniae, ATCC49619, 20 h.

In turn, `CC(=O)Nc1cccc(Sc2ccc(C(=O)c3ccccc3C(=O)O)cc2[N+](=O)[O-])c1` [C3-8, 2-(4-((3-Acetamidophenyl)thio)-3-nitrobenzoyl)benzoic Acid] came in with a melting point of 144 to 146 °C. Further, the MIC in data set [1] (setting [2]) worked out at 256 µg/mL (≈ 587 µM).
Consider `COc1ccc(Nc2ccc(C(=O)c3ccccc3C(=O)O)cc2[N+](=O)[O-])cc1` [C3-24, 2-(4-((4-Methoxyphenyl)amino)-3-nitrobenzoyl)benzoic Acid], for which the melting point was in the range of 225 to 226 °C. In addition, the minimal inhibitory concentration (MIC) in data set [1] (setting [2]) was above 256 µg/mL.
`O=C(O)c1ccccc1C(=O)c1ccc(Sc2ccccn2)c([N+](=O)[O-])c1` [C3-4, 2-(3-Nitro-4-(pyridin-2-ylthio)benzoyl)benzoic Acid] displayed a melting point of 205 to 206 °C. The MIC in data set [1] (setting [2]) was above 256 µg/mL.
With `Nc1ccccc1Sc1ccc(C(=O)c2ccccc2C(=O)O)cc1[N+](=O)[O-]` [C3-1, 2-(4-((2-Aminophenyl)thio)-3-nitrobenzoyl)benzoic Acid], the “inhibitory activity against the binding of σ^A and β′ fragments” value in the data set on β′ CH −σ^A interaction was “possessed inhibitory activity”.
For `O=C(Nc1cccc(Sc2ccc(C(=O)c3ccccc3C(=O)O)cc2[N+](=O)[O-])c1)c1ccccc1` [C3-9, 2-(4-((3-Benzamidophenyl)thio)-3-nitrobenzoyl)benzoic Acid], the melting point fell in the range of 144 to 145 °C. Besides, in data set [1] (setting [2]), the MIC came out at 32 µg/mL (≈ 64.2 µM).
For `Cc1cccc(Nc2ccc(C(=O)c3ccccc3C(=O)O)cc2[N+](=O)[O-])c1` [C3-18, 2-(3-Nitro-4-(m-tolylamino)benzoyl)benzoic Acid] the same measures were 90 to 92 °C and 128 µg/mL (≈ 340 µM).
As for `Nc1ccccc1Nc1ccc(C(=O)c2ccccc2C(=O)O)cc1[N+](=O)[O-]` [C3-17, 2-(4-((2-Aminophenyl)amino)-3-nitrobenzoyl)benzoic Acid], the melting point was 201 to 202 °C. In data set [1] (setting [3]), this compound gave an MIC above 256 µg/mL.
For `CC(C)(C)c1cccc(Nc2ccc(C(=O)c3ccccc3C(=O)O)cc2[N+](=O)[O-])c1` [C3-21, 2-(4-((3-(tert-Butyl)phenyl)amino)-3-nitrobenzoyl)benzoic Acid], the melting point was 110 to 112 °C. Also, the MIC in data set [1] (setting [2]) came to 256 µg/mL (≈ 612 µM).
`Cc1occc1Sc1ccc(C(=O)c2ccccc2C(=O)O)cc1[N+](=O)[O-]` [C3-16, 2-(4-((2-Methylfuran-3-yl)thio)-3-nitrobenzoyl)benzoic Acid] showed a melting point of 198 to 199 °C. In addition, the MIC in data set [1] (setting [2]) was 256 µg/mL (≈ 668 µM).
`Cc1cccc([N+](=O)[O-])c1Sc1ccc(C(=O)c2ccccc2C(=O)O)cc1[N+](=O)[O-]` [C3-15, 2-(4-((2-Methyl-6-nitrophenyl)thio)-3-nitrobenzoyl)benzoic Acid] showed a melting point of 269 to 271 °C. In data set [1] (setting [3]), this compound came in with an MIC of 128 µg/mL (≈ 292 µM).
On the same counts, the results for `O=C(O)c1ccccc1C(=O)c1ccc(Sc2ccc(Cl)cc2Cl)c([N+](=O)[O-])c1` [C3-11, 2-(4-((2,4-Dichlorophenyl)thio)-3-nitrobenzoyl)benzoic Acid] are 260 to 262 °C and 32 µg/mL (≈ 71.4 µM).
Compound `O=C(O)c1ccccc1C(=O)c1ccc(Nc2nccs2)c([N+](=O)[O-])c1` [C3-27, 2-(3-Nitro-4-(thiazol-2-ylamino)benzoyl)benzoic Acid] yielded a melting point of 99 to 100 °C. In data set [1] (setting [2]), the MIC is above 256 µg/mL.
With `CCN(CC)C(=O)c1ccc(Sc2ccc(C(=O)c3ccccc3C(=O)O)cc2[N+](=O)[O-])c([N+](=O)[O-])c1` [C3-14, 2-(4-((4-(Diethylcarbamoyl)-2-nitrophenyl)thio)-3-nitrobenzoyl)benzoic Acid], the melting point was in the range of 129 to 130 °C. In data set [1] (setting [3]), this compound yielded a minimal inhibitory concentration (MIC) of 256 µg/mL (≈ 489 µM).
Regarding `O=C(O)c1ccccc1C(=O)c1ccc(Nc2cccc3cccnc23)c([N+](=O)[O-])c1` [C3-26, 2-(3-Nitro-4-(quinolin-8-ylamino)benzoyl)benzoic Acid], the melting point was in the range of 151 to 153 °C. Further, the MIC in data set [1] (setting [2]) was above 256 µg/mL.
In the case of `O=C(O)c1ccccc1C(=O)c1ccc(Sc2ccccc2F)c([N+](=O)[O-])c1` [C3-3, 2-(4-((2-Fluorophenyl)thio)-3-nitrobenzoyl)benzoic Acid], the melting point was in the range of 175 to 176 °C. Besides, the MIC in data set [1] (setting [2]) stood at 128 µg/mL (≈ 322 µM).
